# In patent publication US10596169B2, “Cancer treatment with combination of plinabulin and taxane” (BeyondSpring Inc., priority 2013, dated 2020):
# Test system: MV522 human non-small cell lung tumor xenograph model
# Experiment: Example 2: MV522 xenograft, NPI-2358 1, 4 or 24 h after docetaxel (TGI/TGD)
# Format: in vivo, athymic nu/nu mice
# Conditions: for MDS day +/− SD: endpoint 1.0 cm^3
# Protocol: In vivo evaluation of plinabulin in combination with docetaxel in the MV522 human non-small cell lung tumor xenograph model in athymic nu/nu mice: schedule of drug administration
# The objective of the example was to evaluate the potential additive or synergistic effects of plinabulin (NPI-2358) in combination with docetaxel by administering NPI-2358 at various time points (1 h, 4 h, or 24 h) after docetaxel in the MV522 model. Significant endpoints for this experiment included mean tumor growth inhibition (TGI) or regression, tumor growth delay (TGD) in large tumor, weight loss, and mortality.
# Female nude mice (Hsd: Athymic Nude-Foxn1^nu) between 5 and 6 weeks of age weighing approximately 20 grams were obtained from Harlan, Inc. (Madison, Wis.). Animals were injected subcutaneously (SC) with approximately 1×10^7 MV522 cells harvested from tissue culture (1:1 matrigel:media). When tumors grew to approximately 100 cubic millimeters (mm^3) in size, animals were pair-matched by tumor size into treatment and control groups. Animals were ear-tagged and followed individually throughout the experiment.
# Initial doses were administered on Day 1 following pair-matching. The experiment was carried out as both a tumor growth inhibition (TGI) and tumor growth delay (TGD) study. For TGI, the endpoint was when the average tumor volume of Group 1 reached 1.2 cm^3. For TGD, the endpoint was reached when each individual animal's tumor volume reached 1.0 cm^3. A 10 mg/ml stock vial of docetaxel was diluted in 0.9% saline on each day of dosing and administered intravenously (IV).
# Same as in Example 1. This arm of the study was ended on Day 80 or 53 at the sponsor's request. Long-term survivors (animals not reaching the tumor volume endpoint by the preset time period (LTS)) were assigned an IDS value of the last study day (Day 80) and included in these calculations.
# For comparison of activity with standard agent(s), gross or net log10 cell-kill values were converted to an arbitrary activity rating below: […]
# [1] = G2: docetaxel 15 mg/kg IV + NPI-2358 vehicle 1 h after
# [2] = G3: docetaxel 15 mg/kg IV + NPI-2358 vehicle 4 h after
# [3] = G4: docetaxel 15 mg/kg IV + NPI-2358 vehicle 24 h after
# [4] = G11: docetaxel 25 mg/kg IV + NPI-2358 vehicle 1 h after
# [5] = G12: docetaxel 25 mg/kg IV + NPI-2358 vehicle 4 h after
# [6] = G13: docetaxel 25 mg/kg IV + NPI-2358 vehicle 24 h after
structure (smiles),measurement,setting,value
"CC(=O)O[C@@]12CO[C@@H]1C[C@H](O)[C@@]1(C)C(=O)[C@H](O)C3=C(C)[C@@H](OC(=O)[C@H](O)[C@@H](NC(=O)OC(C)(C)C)c4ccccc4)C[C@@](O)([C@@H](OC(=O)c4ccccc4)[C@H]21)C3(C)C [Docetaxel, docetaxel]",% TGI,[1],79%
same,Final tumor volume (Day 24) mean +/− SEM,[1],337 +/− 29
same,Log10 cell kill,[1],0.6
same,T-C (tumor growth delay),[1],14
same,MDS day +/− SD,[1],38 ± 3 days
same,% TGI,[2],81%
same,Final tumor volume (Day 24) mean +/− SEM,[2],313 +/− 23
same,Log10 cell kill,[2],0.7
same,T-C (tumor growth delay),[2],18
same,MDS day +/− SD,[2],42 ± 6 days
same,% TGI,[3],80%
same,Final tumor volume (Day 24) mean +/− SEM,[3],325 +/− 41
same,Log10 cell kill,[3],0.6
same,T-C (tumor growth delay),[3],16
same,MDS day +/− SD,[3],40 ± 7 days
same,# of animals with tumor regression (% TR (#)),[4],7
same,% TGI,[4],104%
same,% TR,[4],42%
same,Final tumor volume (Day 24) mean +/− SEM,[4],69 +/− 10
same,Log10 cell kill,[4],1.6
same,T-C (tumor growth delay),[4],39
same,MDS day +/− SD,[4],63 ± 10 days
same,# of animals with tumor regression (% TR (#)),[5],7
same,% TGI,[5],104%
same,% TR,[5],45%
same,Final tumor volume (Day 24) mean +/− SEM,[5],65 +/− 9
same,Log10 cell kill,[5],1.3
same,T-C (tumor growth delay),[5],32
same,MDS day +/− SD,[5],56 ± 4 days
same,# of animals with tumor regression (% TR (#)),[6],7
same,% TGI,[6],103%
same,% TR,[6],55%
same,Final tumor volume (Day 24) mean +/− SEM,[6],72 +/− 14
same,Log10 cell kill,[6],1.4
same,T-C (tumor growth delay),[6],35
same,MDS day +/− SD,[6],59 ± 10 days
